According to ChEMBL document CHEMBL4376854, “Investigation of the Adrenergic and Opioid Binding Affinities, Metabolic Stability, Plasma Protein Binding Properties, and Functional Effects of Selected Indole-Based Kratom Alkaloids” (J Med Chem, 2020):

Key:
[1] = biological target: T1, Alpha-2B adrenergic receptor (Homo sapiens) (UniProt P18089); conditions: CHO, 100 nM
T1 sequence (whole entry): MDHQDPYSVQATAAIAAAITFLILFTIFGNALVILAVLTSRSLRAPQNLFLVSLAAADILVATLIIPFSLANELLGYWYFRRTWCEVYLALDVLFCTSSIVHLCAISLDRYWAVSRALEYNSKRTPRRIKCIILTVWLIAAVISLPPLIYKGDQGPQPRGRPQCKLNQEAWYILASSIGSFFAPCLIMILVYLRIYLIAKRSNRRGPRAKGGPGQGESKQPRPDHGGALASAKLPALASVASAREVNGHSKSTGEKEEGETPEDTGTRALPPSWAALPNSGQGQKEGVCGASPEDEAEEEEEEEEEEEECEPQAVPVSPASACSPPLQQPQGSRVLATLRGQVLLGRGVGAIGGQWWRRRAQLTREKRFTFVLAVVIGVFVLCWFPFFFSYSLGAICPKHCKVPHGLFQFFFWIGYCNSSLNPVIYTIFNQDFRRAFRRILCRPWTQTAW

[2] = biological target: Mu-type opioid receptor (Homo sapiens, UniProt P35372); conditions: HEK293, 100 nM
Sequence of Mu-type opioid receptor (P35372 whole entry): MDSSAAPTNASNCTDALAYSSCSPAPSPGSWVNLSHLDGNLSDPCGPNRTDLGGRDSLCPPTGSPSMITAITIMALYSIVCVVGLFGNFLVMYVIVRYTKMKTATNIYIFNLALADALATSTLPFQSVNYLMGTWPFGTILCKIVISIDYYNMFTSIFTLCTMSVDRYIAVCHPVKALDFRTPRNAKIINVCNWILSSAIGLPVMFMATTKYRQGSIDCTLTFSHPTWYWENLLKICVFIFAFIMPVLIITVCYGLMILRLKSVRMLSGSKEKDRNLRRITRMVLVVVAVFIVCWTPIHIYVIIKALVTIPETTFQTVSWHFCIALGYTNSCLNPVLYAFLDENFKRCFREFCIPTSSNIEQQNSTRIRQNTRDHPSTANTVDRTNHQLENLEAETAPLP

Row | SMILES | inhibition [1] | inhibition [2]
1 | CC[C@@H]1CN2CCc3c([nH]c4cccc(OC)c34)[C@H]2C[C@@H]1/C(=C\OC)C(=O)OC | 0% | –
2 | CC[C@@H]1CN2CCc3c([nH]c4cccc(OC)c34)[C@@H]2C[C@@H]1/C(=C\OC)C(=O)OC | – | 29%
